Measurements taken from US20080274976A1 (priority 2002, published 2008).
Where a SMILES comes first, the peptide text is derived from it. Bridges are numbered along the chain shown (N, C = ends). [ ]: non-standard residue; d: D form. Hyp = O=C(O)[C@@H]1C[C@@H](O)CN1

Tests used:
Shaker-Δ6-46 = Shaker-Δ6-46 (Drosophila melanogaster, UniProt P08510, DEL6-46); assay type: cell-based
TSha1 K^+ channel = assay type: cell-based, trout

Chain of Shaker-Δ6-46 (P08510 1-655 with tags or gaps DEL6-46): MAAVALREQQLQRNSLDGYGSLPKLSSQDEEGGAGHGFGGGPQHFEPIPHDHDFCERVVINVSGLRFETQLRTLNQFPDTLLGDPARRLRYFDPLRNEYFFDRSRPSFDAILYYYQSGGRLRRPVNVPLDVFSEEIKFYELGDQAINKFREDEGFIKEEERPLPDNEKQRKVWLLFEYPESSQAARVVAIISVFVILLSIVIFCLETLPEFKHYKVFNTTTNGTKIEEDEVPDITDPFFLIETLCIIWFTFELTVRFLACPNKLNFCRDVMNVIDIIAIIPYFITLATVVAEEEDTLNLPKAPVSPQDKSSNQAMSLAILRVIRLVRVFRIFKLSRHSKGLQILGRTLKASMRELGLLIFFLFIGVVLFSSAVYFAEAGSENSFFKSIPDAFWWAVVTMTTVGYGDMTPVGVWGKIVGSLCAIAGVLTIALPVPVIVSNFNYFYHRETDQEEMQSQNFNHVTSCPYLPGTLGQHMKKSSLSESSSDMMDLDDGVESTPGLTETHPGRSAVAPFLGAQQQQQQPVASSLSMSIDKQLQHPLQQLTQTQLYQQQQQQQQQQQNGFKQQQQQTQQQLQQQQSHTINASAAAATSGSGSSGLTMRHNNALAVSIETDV

In the case of `CC(C)C[C@@H]1NC(=O)[C@H](CO)NC(=O)[C@@H]2CSSC[C@@H]3NC(=O)[C@@H]4C[C@@H](O)CN4C(=O)[C@H](CC(N)=O)NC(=O)[C@H](CCCNC(=N)N)NC(=O)[C@H](CCCCN)NC(=O)[C@H](CSSC[C@H](NC(=O)[C@H](CO)NC(=O)[C@@H]4C[C@@H](O)CN4C(=O)[C@@H](N)CC(C)C)C(=O)N2)NC(=O)[C@H](C)NC(=O)[C@@H]2C[C@@H](O)CN2C(=O)[C@H](C(C)C)NC(=O)[C@@H]2C[C@@H](O)CN2C(=O)[C@H](CSSC[C@@H](C(=O)N[C@H](C(N)=O)[C@@H](C)O)NC3=O)NC(=O)[C@H](CC(C)C)NC(=O)[C@H](CCCNC(=N)N)NC(=O)[C@H](CC(C)C)NC(=O)[C@H](CC(N)=O)NC1=O` [κM-conotoxin RIIIK, LOSCCSLNLRLCOVOACKRNOCCT-NH2] (H-L[Hyp]SCCSLNLRLC[Hyp]V[Hyp]ACKRN[Hyp]CCT-NH2; disulfide 4-17, 5-22, 12-23), the “affinity for the open state (0 mV), times lower compared to the closed state” value (Shaker-Δ6-46) is reported as “about three to four”, the “k^(C)off” value (Shaker-Δ6-46) is reported as 6.0 ± 3.0 s⁻¹ and the “k^(C)on” value (Shaker-Δ6-46) is reported as 4e+06 ± 700000 M⁻¹ s⁻¹. The “k^(O)off” value (Shaker-Δ6-46) was 90 ± 30 s⁻¹, the “k^(O)on” value (Shaker-Δ6-46) was 3e+07 ± 7e+06 M⁻¹ s⁻¹ and the “k^(C)on, times higher than in the Shaker-Δ6-46 channel” value (TSha1 K^+ channel) was “about four”. For the same molecule, the “k^(O)off for Tsha1, times smaller than in the Shaker-Δ6-46 channel” value (TSha1 K^+ channel) was “about 20 times” and the “k^(O)on in Tsha1, times higher than in the Shaker-Δ6-46 channel” value (TSha1 K^+ channel) was “three”.
